{"source": "patent US11484032B2", "about": "“Compositions for inhibition of insect sensing” (Vanderbilt University, priority 2011, dated 2022)", "target": "T1, AgOrco+AgOR65 (Anopheles gambiae, UniProt Q7QCC7)", "T1 construct": "expressed in transfected cells", "T1 sequence (Q7QCC7 1-478)": "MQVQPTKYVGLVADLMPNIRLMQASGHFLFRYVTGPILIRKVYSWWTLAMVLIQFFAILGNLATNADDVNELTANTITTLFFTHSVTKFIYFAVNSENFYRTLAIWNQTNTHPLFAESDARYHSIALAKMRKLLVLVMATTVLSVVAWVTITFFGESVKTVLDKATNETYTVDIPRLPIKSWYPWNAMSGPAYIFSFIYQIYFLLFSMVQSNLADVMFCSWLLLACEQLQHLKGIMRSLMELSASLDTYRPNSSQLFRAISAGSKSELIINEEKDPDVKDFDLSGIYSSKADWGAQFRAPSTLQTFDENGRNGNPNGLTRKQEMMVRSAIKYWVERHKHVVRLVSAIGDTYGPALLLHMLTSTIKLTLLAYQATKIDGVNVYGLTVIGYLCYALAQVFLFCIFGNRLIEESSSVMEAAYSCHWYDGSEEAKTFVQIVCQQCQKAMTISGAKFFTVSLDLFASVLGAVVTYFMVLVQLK", "experiment": "Ca2+ imaging, HEK cells expressing AgOrco+AgOR65", "type": "cell-based", "conditions": "heteromeric OR channels AgOrco+AgOR65; read-out: EC50", "text": "For transient transfections, ORs were cloned into pCl (Promega) and transfected into Flp-In™ T-REx™293 cell lines (Invitrogen) with Fu GENE6 (Roche). For the creation of stable cell lines, a cell culture expression vector capable of expressing Orco in conjunction with a conventional OR, pcDNA5/FRT/TO (Invitrogen) was modified to create two individual expression cassettes each under the control of a separate CMV/Tet02 promoter and a BGH poly-adenylation signal. Cells (as above) were transfected with the modified pcDNA5 plasmid along with POG44 (a Flp recombinase expression plasmid) to facilitate site-specific recombination. Stable cell lines were selected using Hygromycin B (Invitrogen). Cells were maintained in DMEM (Invitrogen) supplemented with 10% Tetracycline-free FBS (HyClone) and 15 ng/ml Blasticidin. For fluorometric Ca2+ measurements, stable lines expressing ORs of interest were seeded at 20,000 cells/well in black wall, poly-lysine coated 384-well cell culture plates (Greiner) and treated with […] tetracycline (Sigma) overnight to induce OR expression. Cells were dye-loaded with 1.8 uM Fluo-4 AM (Molecular Probes), 2.5 mM Probenecid (Molecular Probes) in assay buffer (20 mM HEPES, IX HBSS) for 45 minutes at 37° C. in 5% CO2 prior to each assay. Ca^2+ mobilization was assayed in an FDSS6000 (Hamamatsu). Baseline readings were taken for 20 s before automated addition of compound previously diluted in DMSO and assay buffer. Ratios were described as Maximum/Minimum response and each response was normalized to the maximum responder.\nFor VUAA0, a single methyl from the para position of the aniline ring (compound VUAA0, FIG. 44) in the VUAA1 structure was removed. […] In VUAA0.5, unsaturation was introduced at the para position of the aniline ring (VUAA0.5, FIG. 44). […] In VUAA2, the ethyl group of the aniline ring in VUAA1 was replaced with an isopropyl group (VUAA2, FIG. 44).", "data": [{"smiles": "CCc1ccc(NC(=O)CSc2nnc(-c3cccnc3)n2CC)cc1", "note": "[VUAA1, 2-((4-ethyl-5-(pyridin-3-yl)-4H-1,2,4-triazol-3-yl)thio)-N-(4-ethylphenyl)acetamide]", "values": [{"measurement": "EC50", "value": 37, "unit": "µM"}]}]}
